Patent US11866424B2, “Aggregation-induced emission luminogens for photodynamic therapy” (The Hong Kong University of Science and Technology, priority 2020, dated 2024)

Key:
[1] = ROS generation measurement with ABDA indicator under white light; settings: 1 μM sample, 10 μM ABDA, DMSO/water 1/100, white light 4.2 mW·cm^−2, up to 6 min; compared with Ce6 and Rose Bengal
Procedure: 9,10-Anthracenediyl-bis(methylene)dimalonic acid (ABDA) was employed to detect ROS generation of TFPy, TFVP, TPE-TFPy, and two commercial standard photosensitizer, Rose Bengal, and Ce6 upon light irradiation. The absorbance of each sample (1 μM) was firstly set as blank. Then, 10 μM of ABDA was mixed to each sample (DMSO/water (v:v)=1/100) in a dark room, and the absorbance of sample was measured at once. The sample mixture was then irradiated under white light (4.2 mW/cm^−2) at intervals of 1 min until 6 min. The absorption of ABDA at 378 nm was recorded at various irradiation times to obtain the decay rate of photosensitizing process. The absorbance change of ABDA alone in 6 min light irradiation time was also measured as control.
Preliminary study was conducted by evaluating capability of ROS generation of three AIEgens. 9,10-Anthracenediyl-bis-(methylene)-dimalonic acid (ABDA) whose absorption will decrease once oxidized by ROS was utilized as an indicator. […] Ce6 and Rose Bangel, two well-known commercially available standard photosensitizers, were engaged as comparison.

HeLa cells = experiment: HeLa cell imaging / co-localization with commercial organelle probes (CLSM); assay type: cell-based; settings: for subcellular organelle visualized after incubation: CLSM, excitation 488 nm; for Pearson's coefficient (co-localization efficiency): co-staining with MitoTracker Green (TFPy), CellMask Green (TFVP), LysoTracker Green (TPE-TFPy)
Procedure: Hela cells were seeded and cultured at 37° C. in a 35 mm glass-bottomed dish. After incubation with TFPy (1 μM), TFVP (5 μM), or TPE-TFPy (2 μM), the cells were washed with PBS three times and subjected to imaging analysis using a Zeiss Laser Scanning Confocal Microscope. All of three AIEgens can be excited with 488 nm filter and the emission filter was 570-740 nm. For co-staining assay, the TFPy, TFVP, and TPE-TFPy loaded Hela cells were subjected to incubation with MitoTracker Green, CellMask Green, and LysoTracker Green, respectively. Hoechst 33258 (5 μM) was also utilized to stain nuclear DNA to assist visualizing. Afterwards, the cells were washed with PBS and then observed with CLSM. The cells were imaged using appropriate excitation and emission filters for each dye. The co-localization efficiency was analyzed with Olympus FV10-ASW software, in which the calculated Pearson's coefficient was 0.90 for TFPy, 0.91 for TFVP, and 0.90 for TPE-TFPy. A stock solution of three AIEgens comprising of 1 μM TFPy, 10 μM TFVP, and 1 μM TPE-TFPy was utilized to incubate with Hela cells, followed by imaging analysis excited with 488 nm filter.
In vitro cellular imaging was carried out to evaluate their subcellular organelle targeting property by confocal laser scanning microscopy (CLSM) using HeLa cell as model cell line. Thanks to the analogous maximum absorption of three AIEgens, fluorescence images can be acquired simultaneously using the same excitation at 488 nm. […] Besides, when HeLa cells were cultured with these three AIEgens simultaneously, all of mitochondria, cell membrane and lysosome were highly emissive (FIG. 3D). It was inferred that the mitochondria-staining behavior of TFPy could be attributed to its high efficiency of electrophoretic transmembrane migration, as well as appropriate binding ability between positively charged pyridinium moiety and the negatively charged interior of the transmembrane potential of mitochondria. The low permeability coefficients resulted from the quite high free energy barrier of TFVP at membrane center could lead to its specific accumulation. In the case of TPE-TFPy, it tends to form nano-sized aggregates in culture media due to the high hydrophobicity, and the in-situ generated aggregates can internalize into lysosome of HeLa cells through endocytosis and specifically light up lysosome upon photoexcitation.

HeLa cell = experiment: MTT cytotoxicity / PDT assay, HeLa cell line; assay type: cell-based; settings: 5 μM, white light 20 min (20 mW/cm^2)
Procedure: 3-(4,5-Dimethylthiazol-2-yl)-2,5-diphenyltetrazolium bromide (MTT) assay was utilized to quantitatively measure the cytotoxicity of TFPy, TFVP, TPE-TFPy, and three in one group based on both Hela cell line and 4T1 cell line. The three in one group was consist of one third concentration of TFPy, TFVP, and TPE-TFPY. Both cancer cell lines were seeded in DMEM media in a 96-well round-bottom microplate with a density of 1×10^4 cells per well. The AIEgens (TFPy, TFVP, TPE-TFPy, and three in one) were added at different concentrations of 0, 0.25, 0.5, 1, 2.5, and 5 μM after replacing the medium, and was incubated with different cell lines respectively for 20 min, followed by irradiation with white light for 20 min (20 mW/cm^2); and another array of plates with cells were kept in the dark as control. After 24 h incubation, 10 uL MTT (5 mg/mL in PBS) was added into each well. 4 hours later, DMSO was added into wells to dissolve the precipitated formazan. Finally, the absorption of each well at 595 nm was recorded via a plate reader (Perkin-Elmer Victor3™). Each trial was performed with 6 wells in parallel.
Cytotoxicity of photosensitizer is a non-negligible factor to take into consideration. […] Consequently, quantitative evaluation of PDT effect was applied on both HeLa Cell and 4T1 cell line through standard methylthiazolyldiphenyltetrazolium bromide (MTT) assay. Each AIEgen and an experimental group named “three in one” were evaluated. The “three in one” group was comprised of one third concentration of each AIEgen (⅓ TFPy, ⅓ TFVP, and ⅓ TPE-TFPy) to assure the overall concentration as same as other experimental groups. […] However, upon irradiation with light for 20 min, HeLa cell suffered severe viability loss with only 10% remained when the “three in one” group was at a concentration of 2.5 μM (FIG. 5C).

[2] = UV-Vis and photoluminescence spectroscopy (optical properties, AIE characteristics); assay type: physicochemical; settings: for λabs: Absorption maximum in DMSO (TFPy and TPE-TFPy) and H2O (TFVP) solution, 10 μM; for λem (Soln.): Emission maximum in DMSO (TFPy and TPE-TFPy) and H2O (TFVP) solution at 10 μM; for ΦF (Aggr.) / ΦF (Soln.) / ΦF (Solid.): Fluorescence quantum yield; for ΦF (Aggr.): aggregation state in 5% DMSO + 95% Toluene or 5% H2O + 95% THF (TFVP); for ΦF (Soln.): calibrated integrating sphere, DMSO (TFPy, TPE-TFPy) or H2O (TFVP) solution; for ΦF (Solid.) / stokes shifts / λem (Solid.): solid state; for λem (Aggr.): aggregation state in 5% DMSO + 95% Toluene (TFPy and TPE-TFPy) or 5% H2O + 95% THF (TFVP); for Iaggr,max/Isoln: emission intensity in 5% DMSO + 95% Toluene (TFPy, TPE-TFPy) or 5% H2O + 95% THF (TFVP) relative to solution; for ε: solution
Excerpt: All the chemicals were purchased from Meryer, J&K, or Sigma as received without further purification. Superdry (99.9%) DCM and methanol with molecular sieves were purchased from J&K Scientific. Toluene was distilled from sodium and benzophenone under nitrogen prior to use. Phosphate buffered saline (PBS) was purchased from Thermo Fisher Scientific. ABDA, Ce6 and Rose Bengal were purchased from Sigma-Aldrich and used as received. Cell culture medium and fetal bovine serum (FBS) were purchased from GIBCO (Gran Island, NY, USA). Mitotracker Green, CellMask Green, and LysoTracker Green were purchased from ThermoFisherScientific. 1H NMR (400 MHz), 13C NMR (100 MHz) spectra were recorded on a Bruker ARX 400 Spectrometer with CDCl3 or d6-DMSO as deuterated solvent. High resolution mass spectra (HRMS) were performed on a Finnigan MAT TAQ 7000 mass spectrometer system operating in matrix-assisted laser desorption/ionization time of flight mass spectrometry (MALDI-TOF) mode. UV-Vis absorption and fluorescence spectra were recorded with Milton Roy Spectronic 3000 array spectrophotometer. Fluorescence images of AIEgens in solution and aggregation state were collected on an Olympus BX 41 fluorescence microscope. Cellular fluorescence images were taken using a Zeiss laser scanning confocal microscope (LSM7 DUO) and analyzed using ZEN 2009 software (Carl Zeiss). Theoretical study was carried out on 6-311G* basis set in Gaussian09 using density functional theory (DFT) approximated by ωB97X-D.
The photophysical properties of TFPy, TFVP and TPE-TFPy were characterized by UV-Vis and photoluminescence spectroscopies at the concentration of 10 μM as shown in FIG. 2 and summarized in Table 1. […] Due to different solubility behavior, the AIE characteristics of TFPy and TPE-TFPy were investigated in DMSO/toluene mixture with different toluene fractions, whereas TFVP was measured in H2O/THF mixture (FIGS. 2C and 2D, FIG. 8). Taking TFVP as an example, TFVP was barely emissive when fully dissolved in water. Upon increasing THF fraction, fluorescence emission intensity got boosted accordingly with a 218-time increment when THF fraction reached 95%. […] In addition, upon the increase of THF or toluene as poor solvent, the emission wavelengths of three AIEgens were blue-shifted owing to the decrease of solvent polarity, manifesting TICT attributes, which is again ascribed to their D-A feature.

4T1 cells = experiment: 4T1 cell imaging / co-localization with commercial organelle probes; assay type: cell-based; settings: for organelle towards which strong affinity is exhibited: 4T1 cell line; for Pearson's coefficient (co-localization): 4T1 cells, co-staining with commercial probes
Procedure: Similar co-staining procedure for Hela cell was applied on 4T1 cell. The calculated Pearson's coefficient was 0.90 for TFPy, 0.91 for TFVP, and 0.90 for TPE-TFPy.
Motivated by the excellent targetability and specificity of three diverse organelle-targeting AIEgens, photostability was also carefully investigated as it is an essential parameter to evaluate a fluorescence imaging agent. Photostability assessment was carried out by continuous irradiation and sequential scanning with confocal microscope. […] With HeLa cell imaging and photostability data in hand, additional cellular uptake experiment using 4T1 cell line was performed as preliminary study for in vivo experiment.

Structure (SMILES)	ROS generation efficacy (decrease of ABDA absorption at 378 nm) [1]	subcellular organelle visualized after incubation (HeLa cells)	Pearson's coefficient (co-localization efficiency) (HeLa cells)	cell viability upon light irradiation (HeLa cell)	λabs [2]	λem (Soln.) [2]	ΦF (Aggr.) [2]	ΦF (Soln.) [2]	ΦF (Solid.) [2]	λem (Aggr.) [2]	Iaggr,max/Isoln [2]	stokes shifts [2]	λem (Solid.) [2]	ε [2]	organelle towards which strong affinity is exhibited (4T1 cells)	Pearson's coefficient (co-localization) (4T1 cells)
C[n+]1ccc(C=Cc2ccc(-c3ccc(N(c4ccccc4)c4ccccc4)cc3)o2)cc1.F[P-](F)(F)(F)(F)F [TFPy]	better than Ce6, but not as efficient as Rose B angel	mitochondria	0.90	58%	485 nm	686 nm	10%	0.4%	0.5%	660 nm	12.6	ca. 200 nm	672 nm	27000 M⁻¹ cm⁻¹	mitochondria	0.90
C[N+](C)(C)CCC[n+]1ccc(C=Cc2ccc(-c3ccc(N(c4ccccc4)c4ccccc4)cc3)o2)cc1.[Br-].[Br-] [TFVP]	better than Ce6, but not as efficient as Rose B angel	cell membrane	0.91	53%	492 nm	675 nm	5%	0.4%	0.6%	672 nm	218	ca. 200 nm	690 nm	28000 M⁻¹ cm⁻¹	cellular membrane	0.91
C[n+]1ccc(C=Cc2ccc(-c3ccc(N(c4ccccc4)c4ccc(C(=C(c5ccccc5)c5ccccc5)c5ccccc5)cc4)cc3)o2)cc1.F[P-](F)(F)(F)(F)F [TPE-TFPy]	much higher than Rose Bangel	lyso some	0.90	15%	490 nm	672 nm	4.2%	0.5%	1.1%	664 nm	26.4	ca. 200 nm	683 nm	31000 M⁻¹ cm⁻¹	lysosome	0.90
